Measurements published in US10517889B2, “Modulators of SMAD7 expression” (Ionis Pharmaceuticals, Inc., priority 2017, dated 2019).
Strand notation (5' to 3'): a small letter for the sugar, then the base; units joined by * are phosphorothioate-linked, units joined directly phosphodiester-linked; [ ] holds rarer units or linkages, { } end groups; capitals alone tell only the bases. k = constrained ethyl (cEt); [5mC] = 5-methylcytosine; d = 2'-deoxy (DNA)

The substances below were run on human SMAD7 mRNA (assay: Antisense inhibition of human SMAD7 mRNA expression in Hep3B cells by 3-10-3 cEt gapmers, 10,000 nM, electroporation (Example 2)). Conditions: Hep3B cells, electroporation with 10,000 nM antisense oligonucleotide, approximately 24 hours, SMAD7 mRNA by RT-PCR (RTS5062), relative to untreated control cells.
Format: cell-based
Summary of the method: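 Hep3B cells (20,000/well) were electroporated with 10,000 nM 3-10-3 cEt gapmer (16-mer, phosphorothioate, 5-methylcytosines) and harvested after about 24 h. SMAD7 mRNA quantified by RT-qPCR with primer probe set RTS5062, normalized to total RNA by RiboGreen; percent inhibition relative to untreated cells.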

Substance | % Inhibition [%]
799415 (antisense kG*k[5mC]*k[5mC]*dA*d[5mC]*dA*dG*d[5mC]*dA*dG*d[5mC]*dT*dG*kG*k[5mC]*kA) [compound 799415] | 0
799426 (antisense kG*k[5mC]*kT*dT*dA*dA*dA*dT*dT*dA*dT*dA*dG*k[5mC]*kA*kA) [compound 799426] | 7
799427 (antisense kG*kT*k[5mC]*d[5mC]*dA*dG*dG*d[5mC]*d[5mC]*dT*d[5mC]*d[5mC]*d[5mC]*kA*kG*kA) [compound 799427] | 20
799428 (antisense kG*kA*k[5mC]*d[5mC]*dA*d[5mC]*dA*d[5mC]*dA*dG*dT*dA*d[5mC]*k[5mC]*kT*kA) [compound 799428] | 47
799430 (antisense kA*kG*k[5mC]*d[5mC]*dA*d[5mC]*dA*dA*dG*dT*d[5mC]*dA*d[5mC]*kA*kA*k[5mC]) [compound 799430] | 29
799431 (antisense kG*kA*k[5mC]*dA*dG*d[5mC]*d[5mC]*dA*d[5mC]*dA*dA*dG*dT*k[5mC]*kA*k[5mC]) [compound 799431] | 39
799432 (antisense kT*kG*kA*d[5mC]*dA*dG*d[5mC]*d[5mC]*dA*d[5mC]*dA*dA*dG*kT*k[5mC]*kA) [compound 799432] | 7
799433 (antisense kT*kT*k[5mC]*dT*dT*dG*dT*dG*dG*dG*dA*dT*dG*kT*kG*kG) [compound 799433] | 56
799434 (antisense kT*kG*kA*dA*dA*d[5mC]*dA*d[5mC]*dG*dG*dG*dA*dA*kG*k[5mC]*kA) [compound 799434] | 37
799435 (antisense kT*k[5mC]*k[5mC]*dT*d[5mC]*dA*dA*dA*d[5mC]*d[5mC]*dT*dT*dT*k[5mC]*kA*kG) [compound 799435] | 60
799446 (antisense kG*kA*k[5mC]*d[5mC]*dT*dA*dA*dT*d[5mC]*dT*d[5mC]*dT*dT*kT*k[5mC]*kA) [compound 799446] | 48
799447 (antisense kA*kT*kG*dA*dA*dT*dG*dA*d[5mC]*d[5mC]*dT*dA*dA*kT*k[5mC]*kT) [compound 799447] | 30
799448 (antisense kG*kT*kA*dA*dA*dA*dT*dG*dA*dA*dT*dG*dA*k[5mC]*kT*kG) [compound 799448] | 41
799449 (antisense k[5mC]*kA*kG*d[5mC]*dA*d[5mC]*dT*dG*d[5mC]*dA*dT*d[5mC]*dG*kG*kA*kA) [compound 799449] | 37
799450 (antisense kA*kA*kG*dA*dA*d[5mC]*dA*d[5mC]*dA*dG*d[5mC]*dA*d[5mC]*kT*kG*k[5mC]) [compound 799450] | 53
799451 (antisense kA*kA*kA*dG*dA*dA*d[5mC]*dA*d[5mC]*dA*dG*d[5mC]*dA*k[5mC]*kT*kG) [compound 799451] | 41
799452 (antisense kA*kA*kA*dA*dG*dA*dA*d[5mC]*dA*d[5mC]*dA*dG*d[5mC]*kA*k[5mC]*kT) [compound 799452] | 44
799453 (antisense kA*k[5mC]*kA*d[5mC]*dA*dG*d[5mC]*dA*d[5mC]*dT*dG*d[5mC]*d[5mC]*kA*kG*kG) [compound 799453] | 58
799454 (antisense kT*kT*kA*dA*dA*dG*dA*d[5mC]*dA*dG*dA*dG*dG*kA*kG*k[5mC]) [compound 799454] | 55
799455 (antisense kT*kG*kT*dT*dA*dA*dA*dG*dA*d[5mC]*dA*dG*dA*kG*kG*kA) [compound 799455] | 55
799466 (antisense kG*kA*k[5mC]*dA*dG*dA*dA*dG*d[5mC]*dT*d[5mC]*dT*dA*kG*kG*k[5mC]) [compound 799466] | 53
799468 (antisense kT*k[5mC]*kA*d[5mC]*d[5mC]*dT*dT*dA*dG*dG*d[5mC]*d[5mC]*dT*kG*kT*kG) [compound 799468] | 22
799469 (antisense k[5mC]*kT*k[5mC]*d[5mC]*dG*d[5mC]*dA*dT*dA*dG*dA*d[5mC]*dA*kG*kA*kT) [compound 799469] | 69

Same assay, conditions: Hep3B cells, electroporation with 10,000 nM antisense oligonucleotide, approximately 24 hours, primer probe set RTS5062, relative to untreated control cells

Substance | % inhibition of SMAD7 mRNA expression [%]
799416 (antisense kA*kA*kG*dA*d[5mC]*d[5mC]*dT*dG*dG*dG*dT*d[5mC]*dA*kG*k[5mC]*kG) [compound 799416] | 41
799417 (antisense kG*kG*k[5mC]*d[5mC]*dA*dA*dA*d[5mC]*dA*dT*dT*d[5mC]*dT*k[5mC]*k[5mC]*k[5mC]) [compound 799417] | 26
799418 (antisense kG*kT*kA*dA*dA*dT*dG*dG*dT*d[5mC]*d[5mC]*dA*dT*kG*kT*kA) [compound 799418] | 12
799419 (antisense kA*kA*kA*dA*dA*dT*dT*d[5mC]*dA*dA*d[5mC]*d[5mC]*dT*kA*kA*kG) [compound 799419] | 0
799420 (antisense k[5mC]*kA*kA*dG*dA*d[5mC]*d[5mC]*dA*dA*dA*dA*dA*dT*kT*k[5mC]*kA) [compound 799420] | 32
799421 (antisense kA*kA*k[5mC]*d[5mC]*d[5mC]*dA*dA*dG*dA*d[5mC]*d[5mC]*dA*dA*kA*kA*kA) [compound 799421] | 63
799422 (antisense kG*kA*kT*dT*dT*dT*dA*dA*d[5mC]*dA*dG*dT*dT*kG*kT*k[5mC]) [compound 799422] | 33
799423 (antisense kT*kA*k[5mC]*d[5mC]*dA*dG*dG*d[5mC]*d[5mC]*d[5mC]*d[5mC]*dA*dG*k[5mC]*k[5mC]*k[5mC]) [compound 799423] | 14
799424 (antisense k[5mC]*kT*k[5mC]*d[5mC]*dA*dA*dA*dG*dG*d[5mC]*dT*dG*d[5mC]*kA*kG*kG) [compound 799424] | 34
799425 (antisense kA*kT*kT*dA*dT*dA*dG*d[5mC]*dA*dA*dA*dA*dT*kG*kG*kA) [compound 799425] | 23
799436 (antisense kA*kG*k[5mC]*d[5mC]*dA*dT*dT*d[5mC]*d[5mC]*dT*d[5mC]*dA*dA*kA*k[5mC]*k[5mC]) [compound 799436] | 4
799437 (antisense k[5mC]*k[5mC]*kA*dG*dA*dT*d[5mC]*dT*d[5mC]*dA*dG*dG*dT*k[5mC]*kA*kA) [compound 799437] | 26
799438 (antisense kA*kA*kG*dA*dG*dA*dG*dA*dA*dA*d[5mC]*dG*d[5mC]*kA*kG*kT) [compound 799438] | 32
799439 (antisense kA*kA*kG*dA*dG*dG*dG*dA*d[5mC]*d[5mC]*dT*d[5mC]*dG*kG*kT*kT) [compound 799439] | 0
799440 (antisense kT*kA*kG*dA*dA*dA*dA*dG*dT*dT*dA*dA*dG*kA*kG*kG) [compound 799440] | 41
799441 (antisense k[5mC]*kT*kA*dG*dA*dA*dA*dA*dG*dT*dT*dA*dA*kG*kA*kG) [compound 799441] | 22
799442 (antisense kG*kA*kT*dT*dT*dT*dA*dA*dA*dA*dG*dA*dG*kG*k[5mC]*k[5mC]) [compound 799442] | 0
799443 (antisense kT*k[5mC]*kA*dT*dG*d[5mC]*dT*dG*dA*dT*dT*dT*dT*kA*kA*kA) [compound 799443] | 24
799444 (antisense k[5mC]*kA*kT*d[5mC]*dA*dT*dG*d[5mC]*dT*dG*dA*dT*dT*kT*kT*kA) [compound 799444] | 45
799445 (antisense k[5mC]*k[5mC]*kT*dA*dA*dT*d[5mC]*dT*d[5mC]*dT*dT*dT*d[5mC]*kA*kT*k[5mC]) [compound 799445] | 28
799456 (antisense kT*k[5mC]*k[5mC]*dT*dA*dA*dG*dT*dA*d[5mC]*dT*dG*dT*kT*kA*kA) [compound 799456] | 0
799457 (antisense k[5mC]*kA*k[5mC]*dG*dA*dT*dA*dG*dT*d[5mC]*dT*d[5mC]*dA*kG*k[5mC]*kA) [compound 799457] | 62
799458 (antisense kT*kT*kG*dA*dA*dA*dA*d[5mC]*d[5mC]*d[5mC]*dA*dA*d[5mC]*k[5mC]*k[5mC]*kT) [compound 799458] | 3
799459 (antisense kA*k[5mC]*kA*dG*dA*dG*dT*d[5mC]*dT*dT*dT*dG*dA*kA*kA*kA) [compound 799459] | 0
799460 (antisense k[5mC]*kA*kA*d[5mC]*dA*dG*dA*dG*dT*d[5mC]*dT*dT*dT*kG*kA*kA) [compound 799460] | 29
799461 (antisense k[5mC]*kT*kG*d[5mC]*dG*dA*dG*dA*dG*dA*dA*dA*dA*kA*kG*kA) [compound 799461] | 62
799462 (antisense kA*kA*kG*d[5mC]*dA*d[5mC]*dT*dA*dG*dG*dT*dT*d[5mC]*kT*kG*k[5mC]) [compound 799462] | 43
799463 (antisense kT*kG*kG*dT*dA*dA*dG*d[5mC]*dA*d[5mC]*dT*dA*dG*kG*kT*kT) [compound 799463] | 33
799464 (antisense kA*kA*kG*d[5mC]*dA*d[5mC]*dT*dT*dG*dG*dT*dA*dA*kG*k[5mC]*kA) [compound 799464] | 40
799465 (antisense kA*kG*k[5mC]*dT*d[5mC]*dT*dA*dG*dG*d[5mC]*d[5mC]*dA*d[5mC]*kT*k[5mC]*k[5mC]) [compound 799465] | 64
